The test system of data set [1] is HCT-15 colon carcinoma cells. In words: MTT cytotoxicity test, HCT-15. The format is cell-based, human. The settings on record: for IC50: HCT-15, 72 h, MTT, ± S.D.; for times more effective than cisplatin: HCT-15 cells. As for the experimental part: (§1) The cytotoxic activity of the complexes and of the uncoordinated ligands was evaluated by the MTT test on a panel of human tumor cell lines containing examples of pancreatic (BxPC3), colorectal (HCT-15), breast (MCF-7), cervical (A431), and lung (A549) cancers as well as of melanoma (A375). For comparison purposes, the cytotoxicity of cisplatin was evaluated under the same experimental conditions.
(§2) Cisplatin was dissolved in 0.9% NaCl solution.
(§3) Human breast (MCF-7), colon (HCT-15), lung (A549) and pancreatic (BxPC3) carcinoma cell lines together with melanoma (A375) cells were obtained from American Type Culture Collection (ATCC, Rockville, MD). The human ovarian cancer cell line 2008 and its cisplatin resistant variant, C13*, were kindly provided by Prof. G. Marverti (Department of Biomedical Science of Modena University, Italy). Human cervical carcinoma (A431) cells were kindly provided by Prof. F. Zunino (Division of Experimental Oncology B, Istituto Nazionale dei Tumori, Milan, Italy). Cell lines were maintained in the logarithmic phase at 37 °C in a 5% carbon dioxide atmosphere using the following culture media containing 10% fetal calf serum (Euroclone, Milan, Italy), antibiotics (50 units/mL penicillin and 50 μg/mL streptomycin) and 2 mM L-glutamine: (i) RPMI-1640 medium (Euroclone) for 2008, C13*, MCF-7, HCT-15, A431 and BxPC3 cells, (ii) F-12 HAM’S (Sigma Chemical Co.) for A549 cells, iii) DMEM (Sigma Chemical Co.) for A375 cells.
(§4) The growth inhibitory effect toward tumor cells was evaluated by means of the MTT assay. Briefly, (3–8) × 10^3 cells/well, dependent upon the growth characteristics of the cell line, were seeded in 96-well microplates in growth medium (100 μL). After 24 h, the medium was removed and replaced with fresh medium containing the compound to be studied at the appropriate concentration. Triplicate cultures were established for each treatment. After 24, 48, or 72 h, each well was treated with 10 μL of a 5 mg/mL MTT saline solution and, after 5 h of incubation, 100 μL of a sodium dodecylsulfate (SDS) solution in 0.01 M HCl was added. After an overnight incubation, cell growth inhibition was detected by measuring the absorbance of each well at 570 nm using a Bio-Rad 680 microplate reader. The mean absorbance for each drug dose was expressed as a percentage of the control, untreated well absorbance and plotted vs drug concentration. The IC50 values, the drug concentrations that decrease the mean absorbance at 570 nm to 50% of that of untreated control wells, were calculated from the dose–response curves with the four-parameter logistic model (4PL). The final value is the mean ± S.D. of at least three independent experiments performed in triplicate.
In general terms: Tetrazolium dyes change colour on reduction, which living cells bring about.

The test system of the next data set is A375 melanoma cells. Briefly: MTT cytotoxicity test, A375. The settings on record: A375, 72 h, ± S.D. Format: cell-based, human. As for the experimental part: as §1, §2, §3, §4
The subject of data set [2] is 2008 ovarian cancer cells. In words: MTT cytotoxicity test, cisplatin-sensitive 2008. The settings on record: 2008 cisplatin-sensitive, 72 h, ± S.D. The format is cell-based, human. As for the experimental part: The cytotoxic properties of the complexes were also evaluated in a pair of tumor cell lines suitably selected for their sensitivity and resistance to cisplatin (adenocarcinoma cells 2008/C13^*). Cross-resistance profiles were evaluated by means of the resistance factor (RF), defined as the ratio between IC50 values calculated for the resistant cells and those obtained with the sensitive ones (Table 2). The phenomenon of cisplatin resistance is multifactorial in nature. Nevertheless, the main molecular mechanisms involved in drug resistance in C13* cancer cells have largely been identified. Indeed, in this cell line resistance is correlated to high cellular glutathione and thioredoxin reductase levels, reduced cellular drug uptake and enhanced repair of DNA damage. […] The RF values calculated for all derivatives were six- to nine-fold lower than that of cisplatin, clearly indicating the absence of cross-resistance.
as §2
Triplicate cultures were established for each treatment.

Data set [3] in a line: Log P octanol/water, shake flask method with ICP-MS. Format: physicochemical. To be noted: n-octanol / 0.9% NaCl water, Pt by ICP-MS. As for the experimental part: Partition coefficients (logP values) for octanol/water partition were determined in order to examine whether a correlation exists between lipophilicity and accumulation into cells. The log P values obtained (Table 3) give the trend in lipophilicity as mono indole acid complex < succinate complex < acetate complex < bis indole acid complex < benzoate complex for both the IAA and the IPA series.
The logP values of the Pt(IV) compounds were determined using the shake flask method. The respective Pt(IV) complex was dissolved in 0.9% NaCl (w/v) ultrapure water (presaturated with n-octanol). The solutions were sonicated and filtered to remove undissolved Pt(IV) compounds. The initial Pt concentrations were determined by ICP-MS. Subsequently, the Pt(IV) solutions were added to an equal volume of n-octanol (presaturated with 0.9% NaCl (w/v) ultrapure water). The heterogeneous mixtures were shaken vigorously for 30 min before centrifuging at 4000 rpm for 30 min to achieve phase separation. The final Pt concentration in the aqueous phase was determined again by ICP-MS. The logarithm of the ratio of Pt concentrations in the organic and aqueous phases was calculated to determine the logP values. All experiments were done in duplicate.

The nature of data set [4]: Stability in physiological saline by mass spectrometry. The format is physicochemical. The settings on record: 0.9% NaCl. As for the experimental part:
Ten indole carboxylic acid Pt(IV) complexes with IAA (indole-3-acetic acid, 1A–5A) and IPA (indole-3-propionic acid, 1P–5P) were synthesized and the structures are depicted in Fig. 3. The monocarboxylato complexes 1A and 1P were prepared by reacting oxoplatin, c,c,t-[Pt(NH3)2Cl2(OH)2], with 0.8 eq. of the activated NHS-ester of the corresponding indole carboxylic acid. The dicarboxylato complexes with two indole acids in axial position (2A and 2P) were obtained using an excess of the NHS-ester activated acid (20 eq.), since the second hydroxo group of oxoplatin is much less reactive than the first one. The unsymmetrically substituted complexes (3A–5A and 3P–5P) were prepared by reaction of the monocarboxylate complexes 1A and 1P with the corresponding anhydrides. We chose three different anhydrides (benzoic, acetic and succinic anhydride) to vary the lipophilicity of the resulting Pt(IV) complexes. All the synthesized Pt(IV) complexes were characterized using elemental analysis, ESI-MS, FT-IR, ^1H and ^195Pt NMR spectroscopy. The purity of the complexes has been assessed through elemental analysis and–where solubility was not an issue–by high performance liquid chromatography (HPLC). The dicarboxylato complexes are poorly soluble in organic solvents. The proton NMR spectra of the complexes in DMSO-d6 show the typical signal of the NH3 protons which is a multiplet at around 6 ppm for the monocarboxylato complexes 1P and 1A (typical ^1JNH and ^2JPtH values around 50 Hz) while it is a broad signal around 6.5 ppm for the bis-substituted complexes (2–5A and 2–5P, Supplementary Information)[44]. The mass spectra of the complexes show a peak in the negative mode with the typical platinum isotope pattern corresponding to M − H^− or M + Cl^−. Stability studies on representative examples of the complexes (1A, 1P, 3A and 3P) via mass spectrometry confirm that the complexes are stable in physiological saline (0.9% NaCl) for at least 48 h (Supplementary Information).
Complexes 1A, 1P, 3A and 3P where dissolved in a minimum amount of DMF and diluted 1:20 with physiological saline (0.9% NaCl). Mass spectra were recorded at t = 0 and after 48 hours.

Data on five compounds can be found in PMC4941645, “Oxidative Stress Induced by Pt(IV) Pro-drugs Based on the Cisplatin Scaffold and Indole Carboxylic Acids in Axial Position” (Scientific Reports, 2016).

Regarding `[NH2][Pt]([NH2])([OH])([Cl])([Cl])[O]C(=O)CCc1c[nH]c2ccccc12` [Complex 1P, cis,cis,trans-[Pt(NH3)2Cl2(IPA)(OH)]], the half-inhibitory concentration (IC50) (commonly the point on the concentration scale where inhibition reaches its midpoint) in data set [1] was determined as 3.66 ± 0.91 µM; in the data set with A375 melanoma cells it was 0.76 ± 0.02 µM; in data set [2] it was 1.45 ± 0.37 µM. The “times more effective than cisplatin” value in data set [1] was “about two times”. For the same compound, in data set [3], the “Log P (octanol/water)” value is recorded as −0.110 ± 0.05. Besides, the “stable in physiological saline” value in data set [4] is on record as “at least 48 h”.

As to `[NH2][Pt]([NH2])([Cl])([Cl])([O]C(=O)CCC(=O)O)[O]C(=O)Cc1c[nH]c2ccccc12` [Complex 4A], the half-maximal inhibitory concentration (IC50) in data set [1] is over 50 µM; in the data set on A375 melanoma cells, 48.5 ± 1.48 µM; in data set [2] it was over 50 µM. In addition, the “Log P (octanol/water)” value in data set [3] is on record as −0.190 ± 0.06.

With `CC(=O)[O][Pt]([NH2])([NH2])([Cl])([Cl])[O]C(=O)Cc1c[nH]c2ccccc12` [Complex 5A], the values for the IC50 (in data set [1]; in the data set on A375 melanoma cells; in data set [2]) were 44.75 ± 0.07 µM, 26.9 ± 4.04 µM and 41.2 ± 0.75 µM, respectively. Besides, the “Log P (octanol/water)” value in data set [3] is given as −0.130 ± 0.05.

For the compound `[NH2][Pt]([NH2])([OH])([Cl])([Cl])[O]C(=O)Cc1c[nH]c2ccccc12` [Complex 1A], the concentration for half-maximal inhibition (IC50) in data set [1] turned out to be 9 ± 3.13 µM; in the data set on A375 melanoma cells, 1.31 ± 0.82 µM; in data set [2] it was 2.89 ± 1.22 µM. Further, the “times more effective than cisplatin” value in data set [1] is given as “about two times”. Further, the “Log P (octanol/water)” value in data set [3] was −0.220 ± 0.04. The “stable in physiological saline” value in data set [4] is “at least 48 h”.

As to `[NH2][Pt]([NH2])([Cl])([Cl])([O]C(=O)Cc1c[nH]c2ccccc12)[O]C(=O)c1ccccc1` [Complex 3A], the 50% inhibitory concentration (IC50) came out at 3.67 ± 1.31 µM in data set [1], 3.53 ± 0.6 µM in the data set on A375 melanoma cells and 9.97 ± 3.18 µM in data set [2]. For the same compound, in data set [3], the “Log P (octanol/water)” value is −0.037 ± 0.04. The “stable in physiological saline” value in data set [4] was “at least 48 h”.
